Patent US20250281424A1 (New York Blood Center, Inc, priority 2020, published 2025)
pIC50: −log10 of the molar value.

Molecular target: T1, human PF4 (Homo sapiens, UniProt P02776)
T1 construct: PF4 is a 70 amino acid, lysine-rich 7.8 kDa platelet-specific protein; made in house; host or cells: Escherichia coli BL21DE3 pLysS (pT7-7) and/or Drosophila S2 cells
T1 sequence (P02776 32-101): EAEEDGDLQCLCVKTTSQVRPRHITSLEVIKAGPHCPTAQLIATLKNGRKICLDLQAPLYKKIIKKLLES
Assay: Inhibition of PF4 tetramer formation (BS3 cross-linking, SDS-PAGE)
Type: biochemical
Conditions: for inhibition at 1 µM: 1 μM inhibitor; for inhibition at 1 µM / inhibition at 3 µM / inhibition at 10 µM / inhibition at 5 µM: read-out: % inhibition of PF4 tetramer formation at single concentration of inhibitor; for inhibition at 3 µM: 3 μM inhibitor (column A); for pIC50: read-out: IC50 of PF4 tetramer formation inhibition; for inhibition at 10 µM: 10 μM inhibitor (column A); for inhibition at 5 µM: 5 μM inhibitor
Method in brief: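 Monomer, dimer, trimer and tetramer fractions were quantified by densitometry after reducing 12% SDS-PAGE of BS3-cross-linked (0.2 mM, 30 min, room temperature) PF4. Before cross-linking, 10 μg/ml E. coli-expressed human WT PF4 in PBS was exposed to compound for 15 min at 37° C or 60 min at room temperature; controls lacked compound.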

CC(C)(C)OC(=O)N1CC[C@H](C(=O)C2C(=O)c3ccc(S(=O)(=O)c4ccc5c(c4)C(=O)C(C(=O)[C@H]4CCN(C(=O)OC(C)(C)C)C4)C5=O)cc3C2=O)C1 (stereo partly drawn) [Example 374, tert-butyl (3S)-3-[5-({2-[(3S)-1-[(tert-butoxy)carbonyl]pyrrolidine-3-carbonyl]-1,3-dioxo-2,3-dihydro-1H-inden-5-yl}sulfonyl)-1,3-dioxo-2,3-dihydro-1H-indene-2-carbonyl]pyrrolidine-1-carboxylate]
inhibition at 1 µM: 22%
inhibition at 3 µM: 49%

COCCOCCC(=O)C1C(=O)c2ccc(Oc3ccc4c(c3)C(=O)C(C(=O)CCOCCOC)C4=O)cc2C1=O (centres unmarked) [Example 383, 2-[3-(2-methoxyethoxy)propanoyl]-5-({2-[3-(2-methoxyethoxy)propanoyl]-1,3-dioxo-2,3-dihydro-1H-inden-5-yl}oxy)-2,3-dihydro-1H-indene-1,3-dione]
inhibition at 1 µM: 20%
inhibition at 3 µM: 45%

CC(C)(C)OC(=O)N1CC[C@H]1C(=O)C1C(=O)c2ccc(C(=O)c3ccc4c(c3)C(=O)C(C(=O)[C@@H]3CCN3C(=O)OC(C)(C)C)C4=O)cc2C1=O (stereo partly drawn) [Example 115, tert-butyl (2S)-2-(5-{2-[(2S)-1-[(tert-butoxy)carbonyl]azetidine-2-carbonyl]-1,3-dioxo-2,3-dihydro-1H-indene-5-carbonyl}-1,3-dioxo-2,3-dihydro-1H-indene-2-carbonyl)azetidine-1-carboxylate]
pIC50: 5.48

O=C(Nc1ccc(Cl)cc1)C1C(=O)c2ccc(S(=O)(=O)c3ccc4c(c3)C(=O)C(C(=O)Nc3ccc(Cl)cc3)C4=O)cc2C1=O (centres unmarked) [Example 87, N-(4-chlorophenyl)-5-({2-[(4-chlorophenyl)carbamoyl]-1,3-dioxo-2,3-dihydro-1H-inden-5-yl}sulfonyl)-1,3-dioxo-2,3-dihydro-1H-indene-2-carboxamide]
pIC50: 5.60

O=C(O)CNC(=O)C1C(=O)c2ccc(S(=O)(=O)c3ccc4c(c3)C(=O)C(C(=O)NCC(=O)O)C4=O)cc2C1=O (centres unmarked) [Example 311, 2-{[5-({2-[(carboxymethyl)carbamoyl]-1,3-dioxo-2,3-dihydro-1H-inden-5-yl}sulfonyl)-1,3-dioxo-2,3-dihydro-1H-inden-2-yl]formamido}acetic acid]
inhibition at 10 µM: 73%

CC(=O)C1C(=O)c2ccc(Oc3ccc4c(n3)C(=O)C(C(C)=O)C4=O)cc2C1=O (centres unmarked) [Example 330, 6-acetyl-2-[(2-acetyl-1,3-dioxo-2,3-dihydro-1H-inden-5-yl)oxy]-5H,6H,7H-cyclopenta[b]pyridine-5,7-dione]
inhibition at 1 µM: 6%
inhibition at 3 µM: 22%

CN(CC(=O)C1C(=O)c2ccc(Oc3ccc4c(c3)C(=O)C(C(=O)CN(C)C(=O)OC(C)(C)C)C4=O)cc2C1=O)C(=O)OC(C)(C)C (centres unmarked) [Example 263, tert-butyl N-[2-(5-{[2-(2-{[(tert-butoxy)carbonyl](methyl)amino}acetyl)-1,3-dioxo-2,3-dihydro-1H-inden-5-yl]oxy}-1,3-dioxo-2,3-dihydro-1H-inden-2-yl)-2-oxoethyl]-N-methylcarbamate]
inhibition at 1 µM: 72%
inhibition at 3 µM: 69%
pIC50: 5.68

O=C(c1ccc2c(c1)C(=O)C(C(=O)Cn1cccn1)C2=O)c1ccc2c(c1)C(=O)C(C(=O)Cn1cccn1)C2=O (centres unmarked) [Example 126, 5-{1,3-dioxo-2-[2-(1H-pyrazol-1-yl)acetyl]-2,3-dihydro-1H-indene-5-carbonyl}-2-[2-(1H-pyrazol-1-yl)acetyl]-2,3-dihydro-1H-indene-1,3-dione]
inhibition at 5 µM: 88%
inhibition at 10 µM: 89%
pIC50: 5.51

CC(=O)OC[C@H]1O[C@@H](OC(C)=O)[C@H](NC(=O)C2C(=O)c3ccc(C(=O)c4ccc5c(c4)C(=O)C(C(=O)N[C@H]4[C@H](OC(C)=O)O[C@H](COC(C)=O)[C@@H](OC(C)=O)[C@@H]4OC(C)=O)C5=O)cc3C2=O)[C@@H](OC(C)=O)[C@@H]1OC(C)=O (stereo partly drawn) [Example 398, [(2R,3S,4R,5R,6S)-3,4,6-tris(acetyloxy)-5-[5-(1,3-dioxo-2-{[(2S,3R,4R,5S,6R)-2,4,5-tris(acetyloxy)-6-[(acetyloxy)methyl]oxan-3-yl]carbamoyl}-2,3-dihydro-1H-indene-5-carbonyl)-1,3-dioxo-2,3-dihydro-1H-indene-2-amido]oxan-2-yl]methyl acetate]
inhibition at 1 µM: 6%
inhibition at 3 µM: 23%

CO[C@@H](C(=O)C1C(=O)c2ccc(C(=O)c3ccc4c(c3)C(=O)C(C(=O)[C@H](OC)c3ccccc3)C4=O)cc2C1=O)c1ccccc1 (stereo partly drawn) [Example 119, 2-[(2R)-2-methoxy-2-phenylacetyl]-5-{2-[(2R)-2-methoxy-2-phenylacetyl]-1,3-dioxo-2,3-dihydro-1H-indene-5-carbonyl}-2,3-dihydro-1H-indene-1,3-dione]
inhibition at 5 µM: 83%
inhibition at 10 µM: 90%
pIC50: 5.40

CC(C)(C)OCC(=O)C1C(=O)c2ccc(C(=O)c3ccc4c(c3)C(=O)C(C(=O)COC(C)(C)C)C4=O)cc2C1=O (centres unmarked) [Example 235, 2-[2-(tert-butoxy)acetyl]-5-{2-[2-(tert-butoxy)acetyl]-1,3-dioxo-2,3-dihydro-1H-indene-5-carbonyl}-2,3-dihydro-1H-indene-1,3-dione]
inhibition at 1 µM: 11%
inhibition at 3 µM: 29%

CC[C@H](C)[C@H](NC(=O)OC(C)(C)C)C(=O)C1C(=O)c2ccc(S(=O)(=O)c3ccc4c(c3)C(=O)C(C(=O)[C@@H](NC(=O)OC(C)(C)C)[C@@H](C)CC)C4=O)cc2C1=O (stereo partly drawn) [Example 279, tert-butyl N-[(2S,3S)-1-[5-({2-[(2S,3S)-2-{[(tert-butoxy)carbonyl]amino}-3-methylpentanoyl]-1,3-dioxo-2,3-dihydro-1H-inden-5-yl}sulfonyl)-1,3-dioxo-2,3-dihydro-1H-inden-2-yl]-3-methyl-1-oxopentan-2-yl]carbamate]
inhibition at 1 µM: 33%
inhibition at 3 µM: 15%
pIC50: 5.52

O=C(c1ccc2c(c1)C(=O)C(C(=O)[C@@H]1CCCN1C(=O)OCc1ccccc1)C2=O)c1ccc2c(c1)C(=O)C(C(=O)[C@@H]1CCCN1C(=O)OCc1ccccc1)C2=O (stereo partly drawn) [Example 125, benzyl (2S)-2-(5-{2-[(2S)-1-[(benzyloxy)carbonyl]pyrrolidine-2-carbonyl]-1,3-dioxo-2,3-dihydro-1H-indene-5-carbonyl}-1,3-dioxo-2,3-dihydro-1H-indene-2-carbonyl)pyrrolidine-1-carboxylate]
inhibition at 5 µM: 87%
inhibition at 10 µM: 93%
pIC50: 5.92

CC(C)(C)OC(=O)NCCC(=O)C1C(=O)c2ccc(C(=O)c3ccc4c(c3)C(=O)C(C(=O)CCNC(=O)OC(C)(C)C)C4=O)cc2C1=O (centres unmarked) [Example 268, tert-butyl N-(3-{5-[2-(3-{[(tert-butoxy)carbonyl]amino}propanoyl)-1,3-dioxo-2,3-dihydro-1H-indene-5-carbonyl]-1,3-dioxo-2,3-dihydro-1H-inden-2-yl}-3-oxopropyl)carbamate]
inhibition at 1 µM: 7%
inhibition at 3 µM: 25%

O=C(CSc1ccncc1)C1C(=O)c2ccc(S(=O)(=O)c3ccc4c(c3)C(=O)C(C(=O)CSc3ccncc3)C4=O)cc2C1=O (centres unmarked) [Example 290, 5-({1,3-dioxo-2-[2-(pyridin-4-ylsulfanyl)acetyl]-2,3-dihydro-1H-inden-5-yl}sulfonyl)-2-[2-(pyridin-4-ylsulfanyl)acetyl]-2,3-dihydro-1H-indene-1,3-dione]
inhibition at 1 µM: 39%
inhibition at 3 µM: 51%

O=C(O)CCC(=O)C1C(=O)c2ccc(C(=O)c3ccc4c(c3)C(=O)C(C(=O)CCC(=O)O)C4=O)cc2C1=O (centres unmarked) [Example 130, 4-{5-[2-(3-carboxypropanoyl)-1,3-dioxo-2,3-dihydro-1H-indene-5-carbonyl]-1,3-dioxo-2,3-dihydro-1H-inden-2-yl}-4-oxobutanoic acid]
pIC50: 5.85

Cc1ccc(NC(=O)C2C(=O)c3ccc(S(=O)(=O)c4ccc5c(c4)C(=O)C(C(=O)Nc4ccc(C)cc4)C5=O)cc3C2=O)cc1 (centres unmarked) [Example 92, N-(4-methylphenyl)-5-({2-[(4-methylphenyl)carbamoyl]-1,3-dioxo-2,3-dihydro-1H-inden-5-yl}sulfonyl)-1,3-dioxo-2,3-dihydro-1H-indene-2-carboxamide]
inhibition at 5 µM: 60%
inhibition at 10 µM: 65%

CC[C@H](C)[C@H](NC(=O)C1C(=O)c2ccc(C(=O)c3ccc4c(c3)C(=O)C(C(=O)N[C@H](C(=O)OC)[C@@H](C)CC)C4=O)cc2C1=O)C(=O)OC (stereo partly drawn) [Example 332, methyl (2S,3S)-2-{[5-(2-{[(2S,3S)-1-methoxy-3-methyl-1-oxopentan-2-yl]carbamoyl}-1,3-dioxo-2,3-dihydro-1H-indene-5-carbonyl)-1,3-dioxo-2,3-dihydro-1H-inden-2-yl]formamido}-3-methylpentanoate]
inhibition at 1 µM: 5%
inhibition at 3 µM: 13%

CC(C)(C)OC(=O)NCCC(=O)C1C(=O)c2ccc(S(=O)(=O)c3ccc4c(c3)C(=O)C(C(=O)CCNC(=O)OC(C)(C)C)C4=O)cc2C1=O (centres unmarked) [Example 164, tert-butyl N-[3-(5-{[2-(3-{[(tert-butoxy)carbonyl]amino}propanoyl)-1,3-dioxo-2,3-dihydro-1H-inden-5-yl]sulfonyl}-1,3-dioxo-2,3-dihydro-1H-inden-2-yl)-3-oxopropyl]carbamate]
inhibition at 5 µM: 70%
inhibition at 10 µM: 82%
pIC50: 5.30

Cc1ccccc1NC(=O)C1C(=O)c2ccc(S(=O)(=O)c3ccc4c(c3)C(=O)C(C(=O)Nc3ccccc3C)C4=O)cc2C1=O (centres unmarked) [Example 85, N-(2-methylphenyl)-5-({2-[(2-methylphenyl)carbamoyl]-1,3-dioxo-2,3-dihydro-1H-inden-5-yl}sulfonyl)-1,3-dioxo-2,3-dihydro-1H-indene-2-carboxamide]
pIC50: 5.60
